Paper PMC3199943, “Screening the MayBridge Rule of 3 Fragment Library for Compounds That Interact with the Trypanosoma brucei myo-Inositol-3-Phosphate Synthase and/or Show Trypanocidal Activity” (Molecular Biology International, 2011)
Counter-ions that a name gives are not always drawn. Like-named read-outs stand apart in the source and are kept apart here.

Experiments:
A549 cells = assay: Cytotoxicity against A549 cells, Alamar Blue; assay type: cell-based; conditions: Supplementary Table 1, compound 0.5 mM, percentage of controls (n=1); for viability at 500 µM: Homo sapiens, A549, 65 h
Protocol: (§1) Cytotoxic effects against HeLa and A549 cells were determined in a similar manner. Briefly, the cells were cultured in DMEM supplemented with 10% FCS and 2 mM L-Glutamine. Cells were plated at initial cell concentration of 2 × 10^4 cells/well and incubated with the compounds for ~65 hours prior to addition of Alamar Blue solution for a further 5 hours.

HeLa cells = assay: cells; conditions: for viability at 500 µM / CC50: Homo sapiens, HeLa; for viability at 500 µM: 65 h; for HeLa Cells Alamar Blue: Supplementary Table 1; for CC50: read-out: HeLa ED50
Protocol: as §1

[1] = read-out: HeLa Cells Alamar Blue
[2] = compound 0.5 mM, percentage of controls, mean ± SD (n=3) or SE (n=2)

| SMILES | viability at 500 µM (A549 cells) | viability at 500 µM (HeLa cells; [1]) | also measured |
| --- | --- | --- | --- |
| CN(C)CCOc1ccc(C#N)cc1 [compound 542, 4‐[2‐(dimethylamino)ethoxy]benzonitrile] | 69.7% | 91.6 ± 9.5% | – |
| Nc1ccccc1N1CCCC1 [compound 289, 2‐pyrrolidin‐1‐ylaniline] | 23.8% | 11.4 ± 9.5% | – |
| OCc1cc2ccccc2o1 [compound 167, 1‐benzofuran‐2‐ylmethanol] | 78.2% | 84.9 ± 19.3% | – |
| OCCc1coc2ccccc12 [compound 284, 2‐benzo[b]furan‐3‐ylethanol] | 63.3% | 58.7 ± 17.4% | – |
| Cn1ncc(CO)c1-c1ccccc1 [compound 530, (1‐methyl‐5‐phenyl‐1H‐pyrazol‐4‐yl)methanol] | – | – | A549 Cells Alamar Blue (A549 cells): 109.5 percentage of controls; HeLa Cells Alamar Blue (HeLa cells; [2]): 87.4 ± 6.2 percentage of controls |
| Nc1ccccc1-c1cccnc1 [compound 348, 2‐pyridin‐3‐ylaniline] | 85.3% | 18.2 ± 10% | CC50 (HeLa cells): 21.8 ± 1.8 µM |
| Nc1ccc(C(F)(F)F)cn1 [compound 283, 5‐(trifluoromethyl)pyridin‐2‐amine] | 63.6% | 92.7 ± 5.3% | – |
| NCc1ccc(F)c(Cl)c1 [compound 264, 3‐chloro‐4‐fluorobenzylamine] | 88.4% | 47.5 ± 13.5% | – |
| CCOC(=O)c1sc(Cl)nc1C [compound 672, ethyl 2‐chloro‐4‐methyl‐1,3‐thiazole‐5‐carboxylate] | – | – | A549 Cells Alamar Blue (A549 cells): 60.5 percentage of controls; HeLa Cells Alamar Blue (HeLa cells; [2]): 89.6 ± 12.5 percentage of controls |
| CCOC(=O)CCc1ccc(O)cc1 [compound 585, ethyl 3‐(4‐hydroxyphenyl)propanoate] | 61.7% | 63.1 ± 3.9% | – |
| OCc1ccc(Cn2ccnc2)cc1 [compound 528, [4‐(1H‐imidazol‐1‐ylmethyl)phenyl]methanol] | – | – | A549 Cells Alamar Blue (A549 cells): 81.2 percentage of controls; HeLa Cells Alamar Blue (HeLa cells; [2]): 90.8 ± 4.5 percentage of controls |
| Cn1cccc1C(=O)O [compound 69, 1‐methyl‐1H‐pyrrole‐2‐carboxylic acid] | 70.2% | 95.3 ± 2.5% | – |
| COC(=O)c1ccc(N)c(C)c1 [compound 304, methyl 4‐amino‐3‐methylbenzoate] | 63.4% | 100 ± 8.9% | – |
| Nc1ccccc1N1CCOCC1 [compound 436, 2‐morpholinoaniline] | 56.4% | 79.1 ± 5.8% | – |
| Nc1ccc2[nH]ncc2c1 [compound 101, 1H‐indazol‐5‐amine] | 70.6% | 31.7 ± 16.2% | – |
| Nc1ccc(C(F)(F)F)cc1 [compound 270, 4‐(trifluoromethyl)aniline] | 104% | 21.8 ± 14.5% | CC50 (HeLa cells): 206 ± 13 µM |
| NC(=O)Cc1ccc(F)cc1Cl [compound 519, 2‐(2‐chloro‐4‐fluorophenyl)acetamide] | 102% | 98.3 ± 15.4% | – |
| Cc1ccccc1NC(N)=S [compound 326, N‐(2‐methylphenyl)thiourea] | 125% | – | viability at 500 µM (HeLa cells; read-out: HeLa Cells Alamar Blue, Supplementary Table 1, compound 0.5 mM, percentage of controls, mean ± SD (n=3) or SE (n=2)): 111 ± 8.5% |
| O=C(O)c1ccccn1 [compound 58, 2‐pyridinecarboxylic acid] | 97.9% | 87.3 ± 6.1% | – |
| OCc1ccc(-c2ccncc2)cc1 [compound 488, (4‐pyrid‐4‐ylphenyl)methanol] | 133% | 65.5 ± 17.5% | – |
| OCc1ccccc1-c1cccs1 [compound 543, (2‐thien‐2‐ylphenyl)methanol] | 56.5% | 73.9 ± 3.7% | – |
| OCC1COc2ccccc2O1 (stereo not shown) [compound 319, 2,3‐dihydro‐1,4‐benzodioxin‐2‐ylmethanol] | – | – | A549 Cells Alamar Blue (A549 cells): 86.4 percentage of controls; HeLa Cells Alamar Blue (HeLa cells; [2]): 102.6 ± 5.1 percentage of controls |
| COc1ccccc1CCC(=O)O [compound 452, 3‐(2‐methoxyphenyl)propanoic acid] | 61.6% | 97.3 ± 7.2% | – |

| SMILES | viability at 500 µM (A549 cells) | viability at 500 µM (HeLa cells; [1]) | also measured |
| --- | --- | --- | --- |
| Nc1ccncc1 [compound 2, pyridin‐4‐amine] | 106% | 103 ± 2.2% | – |
| NCc1ccccc1-n1cccc1 [compound 363, [2‐(1H‐pyrrol‐1‐yl)phenyl]methylamine] | 45.6% | 42.6 ± 11.7% | – |
| OCC1COc2ccccc2C1 (stereo not shown) [compound 300, 3,4‐dihydro‐2H‐chromen‐3‐ylmethanol] | 113% | 90 ± 16.3% | – |
| OCc1ccc(C(F)(F)F)o1 [compound 314, [5‐(trifluoromethyl)‐2‐furyl]methanol] | 76.9% | 114 ± 8.2% | – |
| NCc1cc(Cl)cc(Cl)c1 [compound 405, 3,5‐dichlorobenzylamine] | 84.1% | 77.7 ± 13.9% | – |
| COc1ccc(Cl)cc1N [compound 246, 5‐chloro‐2‐methoxyaniline] | 113% | 113 ± 16.7% | – |
| COC(=O)c1scc(C)c1N [compound 354, methyl 3‐amino‐4‐methylthiophene‐2‐carboxylate] | – | – | A549 Cells Alamar Blue (A549 cells): 32.3 percentage of controls; HeLa Cells Alamar Blue (HeLa cells; [2]): 72.8 ± 8.6 percentage of controls |
| OCC1CCNCC1 [compound 40, 4‐piperidylmethanol] | 104% | 84.3 ± 9% | – |
| Oc1nc2ccc(Cl)cc2o1 [compound 342, 6‐chloro‐1,3‐benzoxazol‐2‐ol] | 73.9% | 94.3 ± 6.5% | – |
| OCc1cccc2c1OCCO2 [compound 322, 2,3‐dihydro‐1,4‐benzodioxin‐5‐ylmethanol] | – | – | A549 Cells Alamar Blue (A549 cells): 96.4 percentage of controls; HeLa Cells Alamar Blue (HeLa cells; [2]): 100.4 ± 14.9 percentage of controls |
| CNCc1ccnc(N2CCCCC2)c1 [compound 671, N‐methyl‐N‐[(2‐piperidin‐1‐ylpyridin‐4‐yl)methyl]amine] | – | – | A549 Cells Alamar Blue (A549 cells): 82.7 percentage of controls; HeLa Cells Alamar Blue (HeLa cells; [2]): 54.8 ± 9.2 percentage of controls |
| Cc1nc2ccc(N)cc2s1 [compound 302, 2‐methyl‐1,3‐benzothiazol‐6‐ylamine] | 62.3% | 71.9 ± 12.4% | – |
| N#CC1(O)CN2CCC1CC2 (stereo not shown) [compound 208, 3‐hydroxyquinuclidine‐3‐carbonitrile] | 61.8% | 99.4 ± 11.2% | – |
| Nc1ccc(N2CCCCC2)cc1 [compound 413, 4‐piperidinoaniline] | 53.2% | 11.6 ± 5.1% | – |
| Nc1cccc(OC(F)(F)F)c1 [compound 419, 3‐(trifluoromethoxy)aniline] | 85% | 105 ± 11.1% | – |
| COC(=O)c1ccccc1Cl [compound 352, methyl 2‐chlorobenzoate] | 76.4% | 95.8 ± 19% | – |
| CC(=O)c1ccc(-n2ccnc2)cc1 [compound 503, 1‐[4‐(1H‐imidazol‐1‐yl)phenyl]‐1‐ethanone] | – | – | A549 Cells Alamar Blue (A549 cells): 94.5 percentage of controls; HeLa Cells Alamar Blue (HeLa cells; [2]): 69.7 ± 7.3 percentage of controls |
| Nc1ccc(Cl)cc1N [269c] | – | – | CC50 (HeLa cells): 224 ± 35 µM |
| Nc1ccc(Cl)c(F)c1 [269b] | – | – | CC50 (HeLa cells): 1400 ± 100 µM |
| Fc1cc2nc[nH]c2cc1Cl [269d] | – | – | CC50 (HeLa cells): 520 ± 52 µM |
| Nc1ccccc1O [269e, 2-amino-phenol] | – | – | CC50 (HeLa cells): 68.2 ± 3.2 µM |
| Nc1ccccc1N [269a, benzene-1,2-diamine] | – | – | CC50 (HeLa cells): 32.9 ± 2.5 µM |
| COC(=O)C1NCCS1 (stereo not shown) [compound 44, methyl 1,3-thiazolane-2-carboxylate hydrochloride] | 87% | – | – |
